For two compounds, IC50 results are on record in BindingDB's records for patent US11718622 (Exelixis, 2023).

In one assay the target is Adenosine receptor A2a (Homo sapiens, UniProt P29274). Briefly: ADORA1A Receptor Binding Assay. The procedure: 2 L of each compound (test compounds, high control compound, low control compound) was transferred into individual wells of an assay plate. Also, to each individual well, 98 µL of Adenosine A1a membrane stock (for ADORA1A Receptor Binding Assay) or Adenosine A2a membrane stock (for ADORA2A Receptor Binding Assay) was dispensed, followed by 100 L of radio-labeled ligand. Plates were then sealed and incubated at room temperature for 1 hour (for ADORA1A Receptor Binding Assay) or 2 hours (for ADORA2A Receptor Binding Assay). Unifilter-96 GF/C filter plates were pre-soaked with 50 µL of 0.3% PEI per well for at least 30 min at room temperature. When binding assays were completed, reaction mixtures were filtered through GF/C plates using a Perkin Elmer Filtermate Harvester, and then each plate was washed 4 with cold wash buffer. Filter plates were then dried for 1 hour at 50 ° C. After drying, the bottom of the filter plate wells was sealed using Perkin Elmer Unifilter-96 backing seal tape. […] 3H trapped on the filter was counted using a Perkin Elmer MicroBeta2 Reader. Data analysis was performed using GraphPad Prism 5 software, and the Inhibition [% Control] was calculated using the following equation: % Inh=(1 Background subtracted Assay value/Background subtracted HC value) *100.
Chain of Adenosine receptor A2a (P29274 whole entry): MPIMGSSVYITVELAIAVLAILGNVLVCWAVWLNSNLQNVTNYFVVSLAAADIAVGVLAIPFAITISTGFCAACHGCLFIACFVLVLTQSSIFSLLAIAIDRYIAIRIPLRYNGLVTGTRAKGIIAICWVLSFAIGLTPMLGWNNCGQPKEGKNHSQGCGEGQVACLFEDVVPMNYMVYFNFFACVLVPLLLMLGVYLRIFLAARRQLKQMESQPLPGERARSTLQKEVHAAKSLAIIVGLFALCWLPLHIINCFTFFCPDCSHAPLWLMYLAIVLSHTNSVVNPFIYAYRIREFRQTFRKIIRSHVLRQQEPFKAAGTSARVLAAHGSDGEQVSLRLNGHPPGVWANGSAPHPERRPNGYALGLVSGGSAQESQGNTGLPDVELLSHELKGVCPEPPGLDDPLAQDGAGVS

For the next assay, the target named is T1, Adenosine receptor A2b (Homo sapiens, UniProt P29275).
T1 sequence (P29275 whole entry): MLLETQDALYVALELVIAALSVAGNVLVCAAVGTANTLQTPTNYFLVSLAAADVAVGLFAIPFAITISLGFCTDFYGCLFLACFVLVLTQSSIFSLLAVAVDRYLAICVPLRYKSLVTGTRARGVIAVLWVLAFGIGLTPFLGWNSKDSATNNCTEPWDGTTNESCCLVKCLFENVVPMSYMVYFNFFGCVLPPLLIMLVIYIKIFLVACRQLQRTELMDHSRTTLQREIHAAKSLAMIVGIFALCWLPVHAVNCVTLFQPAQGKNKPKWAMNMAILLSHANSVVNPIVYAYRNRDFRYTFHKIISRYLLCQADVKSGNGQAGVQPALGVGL
Briefly: ADORA2B Receptor Binding Assay. On the procedure:
100 μL of Adenosine A2B membrane stock was dispensed into individual wells of an assay plate. 1 μL of each compound (test compounds, high control compound, low control compound) was then transferred into individual wells, followed by 100 μL of radio-labeled ligand. Plates were then sealed, and incubated at room temperature for 1 hour. Unifilter-96 GF/C filter plates were pre-soaked with 50 μL of 0.5% BSA per well for at least 30 min at room temperature. When binding assays were completed, reaction mixtures were filtered through GF/C plates using a Perkin Elmer Filtermate Harvester, and then each plate was washed 4× with cold wash buffer. Filter plates were then dried for 1 hour at 50° C. After drying, the bottom of the filter plate wells was sealed using Perkin Elmer Unifilter-96 backing seal tape. 50 μL of Perkin Elmer Microscint 20 cocktail was then added, and the top of the filter plate was then sealed using Perkin Elmer TopSeal-A sealing film. 3H trapped on the filter was counted using a Perkin Elmer MicroBeta2 Reader. Data analysis was performed using GraphPad Prism 5 software, and the Inhibition [% Control] was calculated using the following equation: % Inh=(1−Background subtracted Assay value/Background subtracted HC value) *100.

Each structure is given as a SMILES string. Some results are limits rather than exact numbers.

As to `Nc1nc2c(-c3ccco3)nc(NC(=O)C3CC3)cn2n1` [US11718622, Compound 186], the IC50 at Adenosine receptor A2a and at Adenosine receptor A2b was less than 10 nM each time.
Turning to `Cc1ccc(-c2nc(N)c(C#N)c3nc(C(F)(F)F)nn23)o1` [US11718622, Compound 46], the 50% inhibitory concentration (IC50) at Adenosine receptor A2a and at Adenosine receptor A2b was less than 10 nM in each case.
